From patent publication US20250195521A1 (Revolution Medicines, Inc., priority 2020, published 2025)
Where two headings read alike, the source gives them in different places.

What was measured:
KRAS G12S = KRAS G12S (Homo sapiens (Human), UniProt P01116+P62937, G12S); assay: Ras-Raf disruption/FRET/MOA assay (BRAF RBD, Cyclophilin A); type: biochemical; conditions: read-out: KRAS G12S FRET IC50
Summary of the method: (§1)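 Measured: compound-facilitated Cyclophilin A:Ras complex blocking RAF RBD binding. Conditions: 12.5 nM Ras-GMPPNP, 50 nM BRAF RBD, 25 μM CypA, 3 h plus 1.5 h detection. Output: IC50 from TR-FRET ratio.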

NRAS G12C = NRAS G12C (Homo sapiens (Human), UniProt P01111+P62937, G12C); assay: as above; type: biochemical
NRAS G12C, sequence (P01111 whole entry G12C): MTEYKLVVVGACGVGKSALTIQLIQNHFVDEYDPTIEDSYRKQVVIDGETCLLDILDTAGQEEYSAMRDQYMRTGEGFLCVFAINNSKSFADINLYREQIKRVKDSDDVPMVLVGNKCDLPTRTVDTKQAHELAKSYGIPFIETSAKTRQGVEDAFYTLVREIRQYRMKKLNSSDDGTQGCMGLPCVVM
NRAS G12C, sequence (P62937 whole entry): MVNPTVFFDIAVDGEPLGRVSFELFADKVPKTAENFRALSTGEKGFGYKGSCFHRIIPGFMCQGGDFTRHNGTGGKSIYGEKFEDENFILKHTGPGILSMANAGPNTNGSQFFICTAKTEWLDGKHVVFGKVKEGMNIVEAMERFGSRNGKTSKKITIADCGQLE
Summary of the method: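 Ras-GMPPNP (12.5 nM), BRAF RBD (50 nM) and 25 μM Cyclophilin A were incubated with compound for 3 h at 25° C, then detected 1.5 h with anti-His Eu and anti-GST APC; IC50 values follow from the reduced TR-FRET ratio.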

KRAS G12V = KRAS G12V (Homo sapiens (Human), UniProt P01116+P62937, G12V); assay: as above; type: biochemical; conditions: read-out: KRAS G12V FRET IC50
KRAS G12V, sequence (P01116 other isoform, or with tags, fused parts or gaps G12V): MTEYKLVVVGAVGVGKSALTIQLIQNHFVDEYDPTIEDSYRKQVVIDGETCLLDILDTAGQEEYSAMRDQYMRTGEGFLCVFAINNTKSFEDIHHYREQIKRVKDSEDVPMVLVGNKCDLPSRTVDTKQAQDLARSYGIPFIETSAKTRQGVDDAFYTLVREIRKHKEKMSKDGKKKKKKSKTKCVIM
KRAS G12V, sequence (P62937 whole entry): as the sequence (P62937 whole entry) above
Summary of the method: as §1

KRAS G12D = KRAS G12D (Homo sapiens (Human), UniProt P01116+P62937, G12D); assay: as above; type: biochemical; conditions: read-out: KRAS G12D FRET IC50
KRAS G12D, sequence (P01116 other isoform, or with tags, fused parts or gaps G12D): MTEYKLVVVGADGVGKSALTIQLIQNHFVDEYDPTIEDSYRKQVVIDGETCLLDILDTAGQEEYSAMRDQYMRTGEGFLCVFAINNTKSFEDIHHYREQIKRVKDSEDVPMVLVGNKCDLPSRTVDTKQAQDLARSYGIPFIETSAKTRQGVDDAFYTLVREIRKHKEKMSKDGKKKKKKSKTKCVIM
KRAS G12D, sequence (P62937 whole entry): as the sequence (P62937 whole entry) above
Summary of the method: as §1

KRAS G13C = KRAS G13C (Homo sapiens (Human), UniProt P01116+P62937, G13C); assay: as above; type: biochemical; conditions: read-out: KRAS G13C FRET IC50
KRAS G13C, sequence (P01116 other isoform, or with tags, fused parts or gaps G13C): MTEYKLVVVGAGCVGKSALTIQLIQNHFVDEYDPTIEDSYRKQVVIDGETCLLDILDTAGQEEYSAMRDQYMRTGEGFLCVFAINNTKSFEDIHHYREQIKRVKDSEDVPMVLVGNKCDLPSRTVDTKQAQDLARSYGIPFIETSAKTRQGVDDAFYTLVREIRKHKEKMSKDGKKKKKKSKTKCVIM
KRAS G13C, sequence (P62937 whole entry): as the sequence (P62937 whole entry) above
Summary of the method: as §1

KRAS WT = KRAS WT (Homo sapiens (Human), UniProt P01116+P62937); assay: as above; type: biochemical; conditions: read-out: KRAS WT FRET data IC50
KRAS WT, sequence (P01116 other isoform, or with tags, fused parts or gaps): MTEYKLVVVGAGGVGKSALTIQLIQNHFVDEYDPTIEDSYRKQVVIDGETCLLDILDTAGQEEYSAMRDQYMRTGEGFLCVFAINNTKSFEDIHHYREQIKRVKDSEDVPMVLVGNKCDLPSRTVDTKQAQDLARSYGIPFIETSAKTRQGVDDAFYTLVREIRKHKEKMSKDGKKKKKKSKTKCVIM
KRAS WT, sequence (P62937 whole entry): as the sequence (P62937 whole entry) above
Summary of the method: as §1

KRAS G12C = KRAS G12C (Homo sapiens (Human), UniProt P01116+P62937, G12C); assay: as above; type: biochemical; conditions: read-out: KRAS G12C FRET IC50
KRAS G12C, sequence (P01116-2 other isoform, or with tags, fused parts or gaps G12C): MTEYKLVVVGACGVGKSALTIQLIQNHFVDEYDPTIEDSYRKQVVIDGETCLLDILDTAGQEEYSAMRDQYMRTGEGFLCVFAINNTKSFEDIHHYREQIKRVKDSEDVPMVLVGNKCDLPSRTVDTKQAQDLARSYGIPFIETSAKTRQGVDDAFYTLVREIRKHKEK
KRAS G12C, sequence (P62937 whole entry): as the sequence (P62937 whole entry) above
Summary of the method: as §1

KRAS G13D = KRAS G13D (Homo sapiens (Human), UniProt P01116+P62937, G13D); assay: as above; type: biochemical; conditions: read-out: KRAS G13D FRET data IC50
KRAS G13D, sequence (P01116 other isoform, or with tags, fused parts or gaps G13D): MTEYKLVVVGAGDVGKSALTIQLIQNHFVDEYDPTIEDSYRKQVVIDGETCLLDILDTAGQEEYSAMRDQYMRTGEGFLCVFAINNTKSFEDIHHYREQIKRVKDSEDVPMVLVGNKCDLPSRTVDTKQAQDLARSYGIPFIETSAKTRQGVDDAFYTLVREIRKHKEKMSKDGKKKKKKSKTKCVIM
KRAS G13D, sequence (P62937 whole entry): as the sequence (P62937 whole entry) above
Summary of the method: as §1

[1] = system: NCI-H358 cells (K-Ras G12C); assay: CellTiter-Glo cell viability, NCI-H358; type: cell-based, human; conditions: Homo sapiens, NCI-H358, 120 h, read-out: H358 Cell Viability IC50
Summary of the method: (§2)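 Luminescence read on day 5 after ~30 min room-temperature equilibration; compounds added directly to plated cells. Values = (sample signal/avg DMSO)*100, four-parameter logistic fit.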

[2] = system: Capan-1 cells (K-Ras G12V); assay: CellTiter-Glo cell viability, Capan-1; type: cell-based, human; conditions: Homo sapiens, CAPAN-1, 120 h, read-out: Capan-1 Cell Viability IC50
Summary of the method: as §2

[3] = read-out: NRAS G12C FRET data IC50

KRAS G12S, sequence (P01116 other isoform, or with tags, fused parts or gaps G12S): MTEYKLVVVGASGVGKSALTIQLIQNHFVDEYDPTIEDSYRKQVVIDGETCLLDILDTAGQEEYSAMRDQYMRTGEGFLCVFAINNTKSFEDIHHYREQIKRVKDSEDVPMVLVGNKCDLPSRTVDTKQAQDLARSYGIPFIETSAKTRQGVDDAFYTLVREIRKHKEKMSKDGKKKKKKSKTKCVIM
KRAS G12S, sequence (P62937 whole entry): as the sequence (P62937 whole entry) above

Compound | IC50 (KRAS G12S) [µM] | IC50 (NRAS G12C; [3]) [µM] | IC50 (KRAS G12V) [µM] | IC50 (KRAS G12D) [µM] | IC50 (KRAS G13C) [µM] | IC50 (KRAS WT) [µM] | IC50 (KRAS G12C) [µM] | IC50 (KRAS G13D) [µM] | IC50 ([1]; K-Ras G12C, 5-day treatment) [µM] | IC50 ([2]; K-Ras G12V, 5-day treatment) [µM] | IC50 (NRAS G12C; NRAS G12C FRET data IC50) [µM] | IC50 [1] [µM] | IC50 [2] [µM]
CCn1c(-c2cccnc2[C@H](C)OC)c2c3cc(ccc31)-c1cc(O)cc(c1)C[C@H](NC(=O)[C@H](C(C)C)N(C)C(=O)C1CC(C)C1)C(=O)N1CCC[C@H](N1)C(=O)OCC(C)(C)C2 (stereo partly shown) [Compound A384] | 0.1 to 1 | 0.01 to 0.1 | 0.1 to 1 | 0.1 to 1 | 0.01 to 0.1 | 0.1 to 1 | 0.01 to 0.1 | 0.1 to 1 | 0.1 to 1 | 0.1 to 1 | – | – | –
CCn1c(-c2cccnc2[C@H](C)OC)c2c3cc(ccc31)-c1csc(n1)C[C@H](NC(=O)[C@H](C(C)C)N(C)C(=O)N1CCOC[C@H]1C)C(=O)N1CCC[C@H](N1)C(=O)OCC(C)(C)C2 [Compound A402] | 0.1 to 1 | 0.01 to 0.1 | 0.1 to 1 | 0.1 to 1 | 0.1 to 1 | 0.01 to 0.1 | 0.01 to 0.1 | 0.1 to 1 | 0.01 to 0.1 | 0.01 to 0.1 | – | – | –
CCn1c(-c2cccnc2[C@H](C)OC)c2c3cc(ccc31)-c1cc(O)cc(c1)C[C@H](NC(=O)[C@H](C(C)C)N(C)C(=O)C1CCC(C(F)(F)F)O1)C(=O)N1CCC[C@H](N1)C(=O)OCC(C)(C)C2 (stereo partly shown) [Compound A408] | 0.01 to 0.1 | – | 0.1 to 1 | 0.1 to 1 | 0.01 to 0.1 | 0.1 to 1 | 0.01 to 0.1 | 0.1 to 1 | – | – | 0.01 to 0.1 | 0.1 to 1 | 1 to 10
CCn1c(-c2cccnc2[C@H](C)OC)c2c3cc(ccc31)-c1cc(O)cc(c1)C[C@H](NC(=O)[C@H](C(C)C)N(C)C(=O)C13CCC(CO1)C3)C(=O)N1CCC[C@H](N1)C(=O)OCC(C)(C)C2 [Compound A410] | 0.1 to 1 | 0.1 to 1 | 0.1 to 1 | 0.1 to 1 | 0.01 to 0.1 | 0.01 to 0.1 | 0.01 to 0.1 | 0.1 to 1 | 0.1 to 1 | 0.1 to 1 | – | – | –

The next lines start with results.

IC50 (KRAS G12S) [µM] | IC50 (NRAS G12C; [3]) [µM] | IC50 (KRAS G12V) [µM] | IC50 (KRAS G12D) [µM] | IC50 (KRAS G13C) [µM] | IC50 (KRAS WT) [µM] | IC50 (KRAS G12C) [µM] | IC50 (KRAS G13D) [µM] | IC50 ([1]; K-Ras G12C, 5-day treatment) [µM] | Compound | IC50 ([2]; K-Ras G12V, 5-day treatment) [µM] | IC50 (NRAS G12C; NRAS G12C FRET data IC50) [µM] | IC50 [1] [µM] | IC50 [2] [µM]
0.01 to 0.1 | 0.01 to 0.1 | 0.1 to 1 | 0.1 to 1 | 0.1 to 1 | 0.01 to 0.1 | 0.01 to 0.1 | 0.1 to 1 | 0.01 to 0.1 | CCn1c(-c2cccnc2[C@H](C)OC)c2c3cc(ccc31)-c1csc(n1)C[C@H](NC(=O)[C@H](C(C)C)N(C)C(=O)N1CCCCC1)C(=O)N1CCC[C@H](N1)C(=O)OCC(C)(C)C2 [Compound A363] | 0.01 to 0.1 | – | – | –
0.01 to 0.1 | 0.01 to 0.1 | 0.1 to 1 | 0.01 to 0.1 | 0.01 to 0.1 | 0.01 to 0.1 | 0.01 to 0.1 | 0.01 to 0.1 | 0.01 to 0.1 | CCn1c(-c2cccnc2[C@H](C)OC)c2c3cc(ccc31)-c1cc(O)cc(c1)C[C@H](NC(=O)[C@H](C(C)C)N(C)C(=O)[C@H]1CC[C@@H]1N)C(=O)N1CCC[C@H](N1)C(=O)OCC(C)(C)C2 [Compound A392] | 1 to 10 | – | – | –
0.01 to 0.1 | 0.01 to 0.1 | 0.1 to 1 | 0.01 to 0.1 | 0.01 to 0.1 | 0.01 to 0.1 | 0.01 to 0.1 | 0.01 to 0.1 | 0.1 to 1 | CCn1c(-c2cccnc2[C@H](C)OC)c2c3cc(ccc31)-c1cc(O)cc(c1)C[C@H](NC(=O)[C@H](C(C)C)N(C)C(=O)C1CCNC13CCC3)C(=O)N1CCC[C@H](N1)C(=O)OCC(C)(C)C2 (stereo partly shown) [Compound A393] | 1 to 10 | – | – | –
